In one assay the target is T1, EGFR (Homo sapiens, UniProt P00533).
T1 construct: The intracellular portion of EGFR started at nucleotide 2189 (corresponding to amino acid 667) and ended at the termination codon; made in house; host or cells: Sf9 insect cells (baculovirus)
As to the kind of experiment: EGFR Kinase Assay.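 For all read-outs here: recombinant GST-tagged EGFR expressed in Sf9 cells, phosphorylating biotinylated polyGluTyr with γ-33P ATP on Streptavidin Flashplates, 1 h at 30 °C, scintillation counting, inhibition relative to plate maximum and minimum signals.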 The assay is classed as biochemical. Particulars: for inhibition at 2 µM: test concentration of 2 μM.

For a further assay, the target named is T2, HER-2 (Homo sapiens, UniProt P04626).
T2 construct: purchased Proqinase (Freiburg, Germany)
T2 sequence (P04626 679-1255): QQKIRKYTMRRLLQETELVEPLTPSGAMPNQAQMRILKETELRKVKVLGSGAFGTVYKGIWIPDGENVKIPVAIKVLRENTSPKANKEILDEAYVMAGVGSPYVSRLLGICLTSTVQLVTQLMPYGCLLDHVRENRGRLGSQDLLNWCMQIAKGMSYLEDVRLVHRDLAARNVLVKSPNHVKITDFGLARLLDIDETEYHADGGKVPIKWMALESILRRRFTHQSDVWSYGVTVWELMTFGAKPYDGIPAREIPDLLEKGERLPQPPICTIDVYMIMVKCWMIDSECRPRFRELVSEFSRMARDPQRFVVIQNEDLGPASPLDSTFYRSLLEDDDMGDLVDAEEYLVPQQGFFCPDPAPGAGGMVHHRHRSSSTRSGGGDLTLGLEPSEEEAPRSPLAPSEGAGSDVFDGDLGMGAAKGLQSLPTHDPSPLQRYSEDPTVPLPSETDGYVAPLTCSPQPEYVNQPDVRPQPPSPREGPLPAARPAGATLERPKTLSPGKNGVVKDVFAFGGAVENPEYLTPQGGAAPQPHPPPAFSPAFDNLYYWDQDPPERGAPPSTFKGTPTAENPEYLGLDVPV
Kind of assay: HER-2 Kinase Assay.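 For all read-outs here: HER2 kinase reaction read by scintillation counting, inhibition scaled between maximum and minimum signals set on each plate, IC50 from inhibition against log concentration.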 The assay is classed as biochemical. Particulars: for IC50: read-out: HER2 IC50.

The test system of assay [1] is HeLa cervical adenocarcinoma. As to the kind of experiment: In vitro cell proliferation inhibition, HeLa. The class given is cell-based. Particulars: Homo sapiens, read-out: HeLa IC50. The text has this: The ability of a test compound to inhibit unregulated in vitro cell proliferation may be determined by measuring incorporation of ^14C-labelled thymidine into newly synthesized DNA within cell lines derived from carcinomas originating from several tissues. Accordingly, the effect of a test compound on proliferation of cells with a variety of phenotypes may be determined.
Carcinoma cell lines used include the HeLa cervical adenocarcinoma from the American Type Culture Collection (ATCC Cat. #CCL2), SK-OV-3 ovarian carcinoma (ATCC Cat. #HTB-77), MCF-7 breast carcinoma (ATCC Cat. #HTB-22), BT474 breast carcinoma (ATCC Cat. #HTB-20), SKBR3 breast carcinoma (ATCC Cat. #HTB-30), A431 epidermoid carcinoma (ATCC Cat. #CRL-1555) and NCI-N87 gastric carcinoma (ATCC Cat. #CRL-5822).
The carcinoma cells are trypsinized and counted. The cells (3000-8000 count) are added to each well of a 96-well CytoStar tissue culture treated scintillating microplate (Amersham #RPNQ0160) in complete medium (100 μL) and the plate is then incubated in complete medium for 24 hrs at 37° C. in an inert atmosphere containing 5% CO2.
Test compound (1 μL) in 100% DMSO is added to the plate test-wells with DMSO only added to control-wells. The plate is incubated in complete medium for a second 24 hr period at 37° C. in an atmosphere containing 5% CO2.
An aliquot of a solution of Methyl ^14C-thymidine (56 mC/mmol) (NEN #NEC568 or Amersham #CFA532) and complete medium (20 μL to provide 0.2 μCi/well) is then added to each well and the plate is incubated for a third 24 hr period at 37° C. in an atmosphere containing 5% CO2.
The plate contents are then discarded, the plate is washed twice with PBS (200 μL) and then PBS (200 μL) is added to each well. The plate is sealed and the degree of methyl ^14C-thymidine incorporation is quantified on a Packard Top Count.
Cell proliferation of the Hela cell line was measured using the ATP-Lite method as described in the ATP Lite Kit (Perkin-Elmer Kit Number 6106941) or the C^14 method as described above. Cell proliferation of the other cell lines was measured using the C^14 method.
The term “NT” means that the compound indicated was not tested in a particular cell line. The lack of such testing is not intended to imply a belief that the compound is not otherwise active in a particular cell line or any other cell line not tested.

Where [2] appears, read: HeLa cell line, ATP-Lite method or C14 thymidine method.

SMILES strings stand for the structures. Where two headings read alike, the source gives them in different places.

For orientation: IC50 means the concentration that gives 50% inhibition. Broadly, the inhibition is the share of the control response that was lost under treatment.

T1 sequence (P00533 669-1210 limits assumed): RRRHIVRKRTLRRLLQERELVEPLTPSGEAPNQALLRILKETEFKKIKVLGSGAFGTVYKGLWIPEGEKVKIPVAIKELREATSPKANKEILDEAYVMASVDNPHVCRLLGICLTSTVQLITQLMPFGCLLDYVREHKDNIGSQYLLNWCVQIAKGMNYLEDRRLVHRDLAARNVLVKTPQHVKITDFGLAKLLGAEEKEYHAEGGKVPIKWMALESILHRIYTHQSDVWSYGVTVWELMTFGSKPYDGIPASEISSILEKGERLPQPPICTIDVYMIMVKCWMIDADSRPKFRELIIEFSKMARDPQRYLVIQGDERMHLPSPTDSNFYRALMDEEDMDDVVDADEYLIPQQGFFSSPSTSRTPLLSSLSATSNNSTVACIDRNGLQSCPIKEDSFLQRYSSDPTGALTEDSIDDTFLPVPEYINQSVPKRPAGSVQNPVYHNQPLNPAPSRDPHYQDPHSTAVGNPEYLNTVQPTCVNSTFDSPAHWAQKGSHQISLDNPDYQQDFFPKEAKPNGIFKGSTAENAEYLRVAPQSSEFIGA

Take `CCO/N=C/c1c(N)ncnc1Nc1ccc2c(cnn2Cc2cccc(Cl)c2)c1` [Cpd 55, (5E)-4-amino-6-[1-(3-chloro-benzyl)-1H-indazol-5-ylamino]-pyrimidine-5-carbaldehyde O-ethyl-oxime]: the IC50 at EGFR is 40 nM; on HER-2, 30 nM. The corresponding values for `CO/N=C/c1c(N)ncnc1Nc1ccc(OC)c(Cl)c1` [Cpd 63] are 1200 nM and 1000 nM. As for `Nc1ncnc(Nc2ccc3c(cnn3Cc3cccc(F)c3)c2)c1/C=N/Oc1ccccc1` [Cpd 65, (5E)-4-amino-6-[1-(3-fluoro-benzyl)-1H-indazol-5-ylamino]-pyrimidine-5-carbaldehyde O-phenyl-oxime], the half-inhibitory concentration (IC50) against EGFR was found to be 40 nM; on HER-2, 200 nM.

Turning to `CCO/N=C/c1c(N)ncnc1Nc1ccc2c(cnn2Cc2ccc(F)cc2)c1` [Cpd 67, (5E)-4-amino-6-[1-(4-fluoro-benzyl)-1H-indazol-5-ylamino]-pyrimidine-5-carbaldehyde O-ethyl-oxime], the 50% inhibitory concentration (IC50) against EGFR was 100 nM; at HER-2, 200 nM. Regarding `Nc1ncnc(Nc2ccc3c(cnn3Cc3cccc(F)c3)c2)c1/C=N\OCCCO` [Cpd 69, (5Z)-4-amino-6-[1-(3-fluoro-benzyl)-1H-indazol-5-ylamino]-pyrimidine-5-carbaldehyde O-(3-hydroxy-propyl)-oxime], the IC50 at EGFR is 10 nM; on HER-2, 4 nM. For the compound `COCCO/N=C/c1c(N)ncnc1Nc1ccc(OCc2ccccc2)c(Cl)c1` [Cpd 71, (5E)-4-amino-6-(4-benzyloxy-3-chloro-phenylamino)-pyrimidine-5-carbaldehyde O-(2-methoxy-ethyl)-oxime], the IC50 was 10 nM against EGFR and 50 nM at HER-2. Turning to `Nc1ncnc(Nc2ccc(OCc3ccccc3)c(Cl)c2)c1/C=N/O` [Cpd 77, (5E)-4-amino-6-(4-benzyloxy-3-chloro-phenylamino)-pyrimidine-5-carbaldehyde oxime], the half-maximal inhibitory concentration (IC50) in assay [1] (setting [2]) is 10000 nM; at EGFR, 20 nM; on HER-2 it was 100 nM. For the compound `Nc1ncnc(Nc2ccc(OCc3cccc(F)c3)c(Cl)c2)c1/C=N/O` [Cpd 79, (5E)-4-amino-6-[3-chloro-4-(3-fluoro-benzyloxy)-phenylamino]-pyrimidine-5-carbaldehyde oxime], the half-maximal inhibitory concentration (IC50) in assay [1] (setting [2]) is 100000 nM; on EGFR, 8 nM; on HER-2 it was 10 nM. With `CO/N=C/c1c(N)ncnc1Nc1ccc(Cl)cc1F` [Cpd 80], the IC50 came out at 100000 nM in assay [1] (setting [2]) and 300 nM on EGFR. `CO/N=C\c1c(N)ncnc1Nc1ccc(Cl)cc1F` [Cpd 81]: in assay [1] (setting [2]), the IC50 was found to be 10000 nM.

Regarding `CO/N=C/c1c(N)ncnc1Nc1ccc(Br)cc1F` [Cpd 82], the IC50 in assay [1] (setting [2]) is 100000 nM; against EGFR, 200 nM. As for `CO/N=C\c1c(N)ncnc1Nc1ccc(Br)cc1F` [Cpd 83], in assay [1] (setting [2]), the half-maximal inhibitory concentration (IC50) came out at 3600 nM. The same measure, in the same setting: the result for `Nc1ncnc(Nc2ccc3c(cnn3Cc3cccc(F)c3)c2)c1/C=N/O` [Cpd 84, (5E)-4-amino-6-[1-(3-fluoro-benzyl)-1H-indazol-5-ylamino]-pyrimidine-5-carbaldehyde oxime] reads 4900 nM.

As to `Nc1ncnc(Nc2ccc3c(cnn3Cc3cccc(F)c3)c2)c1/C=N/OCCCO` [Cpd 85, (5E)-4-amino-6-[1-(3-fluoro-benzyl)-1H-indazol-5-ylamino]-pyrimidine-5-carbaldehyde O-(3-hydroxy-propyl)-oxime], the figures for the half-maximal inhibitory concentration (IC50) (in assay [1] (HeLa); against EGFR; at HER-2) were 15600 nM, 20 nM and 20 nM, respectively. With `CO/N=C/c1c(NOC)ncnc1Nc1ccc(Br)cc1F` [Cpd 86], the 50% inhibitory concentration (IC50) in assay [1] (setting [2]) stood at 100000 nM. Consider `Nc1ncnc(Nc2ccc3c(ccn3Cc3cccc(F)c3)c2)c1/C=N/O` [Cpd 88, (5E)-4-amino-6-[1-(3-fluoro-benzyl)-1H-indol-5-ylamino]-pyrimidine-5-carbaldehyde oxime], for which the IC50 in assay [1] (setting [2]) worked out at 10900 nM; on EGFR it was 9 nM; on HER-2 it was 20 nM.

Turning to `CO/N=C/c1c(N)ncnc1Nc1cc(O)c(Cl)cc1F` [Cpd 89], the IC50 in assay [1] (setting [2]) came out at 10000 nM. Same read-out and setting: the result for `CO/N=C\c1c(N)ncnc1Nc1cc(O)c(Cl)cc1F` [Cpd 90] reads 10000 nM. In the case of `CO/N=C/c1c(N)ncnc1Nc1ccc(OCc2cc(F)cc(F)c2)c(Cl)c1` [Cpd 97, (5E)-4-amino-6-[3-chloro-4-(3,5-difluoro-benzyloxy)-phenylamino]-pyrimidine-5-carbaldehyde O-methyl-oxime], the values for the IC50 (in assay [1] (setting [2]); on HER-2) were 100000 nM and 1000 nM, respectively. Take `Nc1ncnc(Nc2ccc(OCc3cc(F)cc(F)c3)c(Cl)c2)c1/C=N/O` [Cpd 98, (5E)-4-amino-6-[3-chloro-4-(3,5-difluoro-benzyloxy)-phenylamino]-pyrimidine-5-carbaldehyde oxime]: the IC50 in assay [1] (setting [2]) worked out at 100000 nM; against EGFR, 20 nM; on HER-2 it was 100 nM.

`C[C@H](Nc1ncnc(N)c1/C=N/O)c1ccccc1` [Cpd 100, (5E)-4-amino-6-[(1S)-1-phenyl-ethylamino]-pyrimidine-5-carbaldehyde oxime]: the IC50 was determined as 10000 nM in assay [1] (setting [2]) and 20 nM at EGFR. With `C[C@H](Nc1ncnc(N)c1/C=N/OCCN1CCOCC1)c1ccccc1` [Cpd 103], the IC50 in assay [1] (setting [2]) worked out at 10000 nM.

Turning to `CO/N=C/c1c(N)ncnc1Nc1ccc(NC(=O)c2ccccc2)cc1` [Cpd 104], the 50% inhibitory concentration (IC50) in assay [1] (setting [2]) was 10000 nM. Turning to `Nc1ncnc(Nc2ccc(NC(=O)c3ccccc3)cc2)c1/C=N/O` [Cpd 105], in assay [1] (setting [2]), the IC50 worked out at 100000 nM. Same read-out and setting: the result for `C[C@H](Nc1ncnc(N)c1/C=N/OCCN1CCCCC1)c1ccccc1` [Cpd 106] reads 10000 nM. Still for that read-out and setting: the result for `Nc1ncnc(Nc2ccc(NC(=O)c3ccccc3)cc2)c1/C=N/OCCN1CCOCC1` [Cpd 107] reads 100000 nM; that for `Nc1ncnc(Nc2ccc(Oc3ccccc3)cc2)c1/C=N/OCCN1CCOCC1` [Cpd 109], 100000 nM. Same read-out and setting: the result for `CO/N=C/c1c(N)ncnc1Nc1cnc(NC(=O)c2ccccc2)nc1` [Cpd 110] reads 33100 nM. Regarding `Nc1ncnc(Nc2ccc(Oc3ccccc3)cc2)c1/C=N/O` [Cpd 111, (5E)-4-amino-6-(4-phenoxy-phenylamino)-pyrimidine-5-carbaldehyde oxime], the concentration for half-maximal inhibition (IC50) amounted to 100 nM on EGFR and 300 nM at HER-2. For `CON=Cc1c(N)ncnc1Nc1ccc(OC)cc1` [Cpd 120, 4-amino-6-(4-methoxy-phenylamino)-pyrimidine-5-carbaldehyde O-methyl-oxime], at 2 µM the inhibition at EGFR was 15%. Further, at HER-2, the half-inhibitory concentration (IC50) turned out to be 7920 nM. Taken in the same sequence, the figures for `CON=Cc1c(N)ncnc1NCc1ccc(OC)c(OC)c1` [Cpd 122, 4-amino-6-(3,4-dimethoxy-benzylamino)-pyrimidine-5-carbaldehyde O-methyl-oxime] were 6% and more than 100000 nM. Taken in the same sequence, the figures for `CON=Cc1c(N)ncnc1NCc1ccc(Oc2ccccc2)cc1` [Cpd 123, 4-amino-6-(4-phenoxy-benzylamino)-pyrimidine-5-carbaldehyde O-methyl-oxime] were 7% and more than 100000 nM.

Consider `CON=Cc1c(N)ncnc1NC1CCc2ccccc21` (stereo not shown) [Cpd 124, 4-amino-6-(indan-1-ylamino)-pyrimidine-5-carbaldehyde O-methyl-oxime], for which, on EGFR, the inhibition at 2 µM was 26%. Further, the IC50 on HER-2 was determined as 2460 nM.

For `CON=Cc1c(N)ncnc1NC1CCCc2ccccc21` (stereo not shown) [Cpd 125, 4-amino-6-(1,2,3,4-tetrahydro-naphthalen-1-ylamino)-pyrimidine-5-carbaldehyde O-methyl-oxime], the inhibition at 2 µM on EGFR is 42%. Moreover, the inhibition at 1 µM on HER-2 (test concentration of 1 μM, read-out: HER2 % inhibition) was determined as 25%. `CON=Cc1c(N)ncnc1Nc1ccc(Oc2ccccc2)nc1` [Cpd 128, 4-amino-6-(6-phenoxy-pyridin-3-ylamino)-pyrimidine-5-carbaldehyde O-methyl-oxime] yielded an inhibition at 2 µM at EGFR of 45%. In addition, the IC50 at HER-2 is 1820 nM. The corresponding values for `CON=Cc1c(N)ncnc1Nc1ccc(N2CCOCC2)nc1` [Cpd 129, 4-amino-6-(6-morpholin-4-yl-pyridin-3-ylamino)-pyrimidine-5-carbaldehyde O-methyl-oxime] are 1% and more than 100000 nM.
